Among the data in publication PMC7736581, “Activation of the IRE1 RNase through remodeling of the kinase front pocket by ATP-competitive ligands” (Nature Communications, 2020) are inhibition values, retold here.

Common to all, as to experiment: biochemical
Holding throughout (set-up): Invitrogen kinase panel: Z'Lyte activity (ATP at Km) or LanthaScreen competitive ATP-site binding, percent inhibition
On the technique in general: Time-resolved FRET reads energy transfer from a long-lived donor to a nearby acceptor.

Assay [1] deals with T1, CDK5/p25 (Homo sapiens, UniProt Q00535).
T1 construct: p25

The target of assay [2] is CDK1/cyclinB (Homo sapiens, UniProt P06493).
For assay [3], the target named is T2, Brk (Homo sapiens, UniProt Q13882).
T2 construct: gene PTK6

In assay [4] the target is T3, IKK_beta (Homo sapiens, UniProt O14920).
T3 construct: gene IKBKB
T3 sequence (O14920 1-756): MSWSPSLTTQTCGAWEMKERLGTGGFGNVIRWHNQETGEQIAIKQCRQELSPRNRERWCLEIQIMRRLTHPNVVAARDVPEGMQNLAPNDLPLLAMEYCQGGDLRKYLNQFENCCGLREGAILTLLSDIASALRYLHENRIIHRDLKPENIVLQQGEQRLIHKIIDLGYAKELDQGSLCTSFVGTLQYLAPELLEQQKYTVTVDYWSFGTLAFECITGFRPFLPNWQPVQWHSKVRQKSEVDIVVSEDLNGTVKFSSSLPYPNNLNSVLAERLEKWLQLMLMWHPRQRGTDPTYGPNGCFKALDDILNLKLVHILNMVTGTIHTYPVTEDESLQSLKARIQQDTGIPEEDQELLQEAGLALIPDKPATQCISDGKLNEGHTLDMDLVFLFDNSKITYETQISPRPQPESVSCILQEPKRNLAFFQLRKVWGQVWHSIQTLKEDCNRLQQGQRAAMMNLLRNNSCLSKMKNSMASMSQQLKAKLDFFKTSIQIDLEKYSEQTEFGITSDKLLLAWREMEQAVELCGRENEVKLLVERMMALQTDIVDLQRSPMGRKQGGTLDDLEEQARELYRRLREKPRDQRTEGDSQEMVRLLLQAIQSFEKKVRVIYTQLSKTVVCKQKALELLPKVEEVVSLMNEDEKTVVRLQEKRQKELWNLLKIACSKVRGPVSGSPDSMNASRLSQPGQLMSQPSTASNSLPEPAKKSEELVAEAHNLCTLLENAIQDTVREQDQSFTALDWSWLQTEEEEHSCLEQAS

Assay [5] concerns the target T4, Tie2 (Homo sapiens, UniProt Q02763).
T4 construct: gene TEK

The target in assay [6] is T5, Aurora_B (Homo sapiens, UniProt Q96GD4).
T5 construct: gene AURKB

The target in assay [7] is T6, IRAK4 (Homo sapiens, UniProt Q9NWZ3).
T6 sequence (Q9NWZ3 1-460): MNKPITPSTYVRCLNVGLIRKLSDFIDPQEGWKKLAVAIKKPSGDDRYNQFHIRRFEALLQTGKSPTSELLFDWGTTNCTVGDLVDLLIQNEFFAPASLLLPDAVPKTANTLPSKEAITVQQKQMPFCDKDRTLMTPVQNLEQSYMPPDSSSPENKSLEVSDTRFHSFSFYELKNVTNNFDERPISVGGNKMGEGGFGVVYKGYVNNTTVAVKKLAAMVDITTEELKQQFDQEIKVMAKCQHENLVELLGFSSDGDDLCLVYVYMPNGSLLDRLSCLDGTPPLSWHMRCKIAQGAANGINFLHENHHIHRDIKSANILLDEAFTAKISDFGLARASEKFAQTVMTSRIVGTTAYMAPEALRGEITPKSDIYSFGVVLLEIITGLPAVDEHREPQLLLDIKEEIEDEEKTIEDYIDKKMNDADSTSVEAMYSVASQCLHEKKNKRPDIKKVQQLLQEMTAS

For assay [8], the target named is T7, TrkA (Homo sapiens, UniProt P04629).
T7 construct: gene NTRK1

In assay [9] the target is T8, PKD1 (Homo sapiens, UniProt Q15139).
T8 construct: gene PRKD1
T8 sequence (Q15139 1-912): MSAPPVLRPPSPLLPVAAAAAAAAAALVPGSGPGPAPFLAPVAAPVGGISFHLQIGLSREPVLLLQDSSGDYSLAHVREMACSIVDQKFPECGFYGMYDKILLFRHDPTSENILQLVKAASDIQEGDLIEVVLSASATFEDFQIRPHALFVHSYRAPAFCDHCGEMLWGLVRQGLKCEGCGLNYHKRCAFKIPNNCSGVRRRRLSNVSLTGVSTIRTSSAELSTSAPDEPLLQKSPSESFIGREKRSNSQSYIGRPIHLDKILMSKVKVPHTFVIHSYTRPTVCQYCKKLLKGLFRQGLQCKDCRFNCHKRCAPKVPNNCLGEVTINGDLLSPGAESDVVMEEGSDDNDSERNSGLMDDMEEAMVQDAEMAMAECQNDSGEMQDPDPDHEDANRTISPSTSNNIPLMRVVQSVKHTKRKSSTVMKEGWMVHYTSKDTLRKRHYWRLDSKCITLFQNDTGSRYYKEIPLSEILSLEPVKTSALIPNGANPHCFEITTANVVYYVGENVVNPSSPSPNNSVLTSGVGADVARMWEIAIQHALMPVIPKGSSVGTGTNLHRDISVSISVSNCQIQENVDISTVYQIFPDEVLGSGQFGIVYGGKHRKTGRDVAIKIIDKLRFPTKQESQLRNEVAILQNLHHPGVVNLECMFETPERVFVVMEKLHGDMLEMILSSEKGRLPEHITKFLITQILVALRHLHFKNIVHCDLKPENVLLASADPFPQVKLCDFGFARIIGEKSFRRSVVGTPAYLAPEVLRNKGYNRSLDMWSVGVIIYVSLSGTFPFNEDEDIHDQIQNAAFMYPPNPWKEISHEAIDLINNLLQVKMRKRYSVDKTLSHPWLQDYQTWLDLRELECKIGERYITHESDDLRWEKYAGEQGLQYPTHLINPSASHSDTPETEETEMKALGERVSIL

T1 sequence (Q00535 whole entry): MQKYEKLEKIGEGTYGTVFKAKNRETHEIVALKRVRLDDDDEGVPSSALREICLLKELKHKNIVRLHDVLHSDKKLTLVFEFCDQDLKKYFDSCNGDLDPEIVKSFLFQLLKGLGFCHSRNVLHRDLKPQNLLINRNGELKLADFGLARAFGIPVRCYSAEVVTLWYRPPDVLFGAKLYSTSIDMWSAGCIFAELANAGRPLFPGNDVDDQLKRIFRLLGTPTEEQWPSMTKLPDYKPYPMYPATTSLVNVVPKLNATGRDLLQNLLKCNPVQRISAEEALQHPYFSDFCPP
T1 sequence (Q15078 whole entry partner): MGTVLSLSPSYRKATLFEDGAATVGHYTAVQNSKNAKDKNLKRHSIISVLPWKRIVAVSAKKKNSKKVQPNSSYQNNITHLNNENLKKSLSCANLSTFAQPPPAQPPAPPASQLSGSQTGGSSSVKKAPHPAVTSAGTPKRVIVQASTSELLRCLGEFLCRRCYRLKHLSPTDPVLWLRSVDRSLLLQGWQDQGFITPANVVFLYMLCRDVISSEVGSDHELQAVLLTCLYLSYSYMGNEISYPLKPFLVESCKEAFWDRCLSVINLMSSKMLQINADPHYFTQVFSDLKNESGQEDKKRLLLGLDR
T5 sequence (Q96GD4 whole entry): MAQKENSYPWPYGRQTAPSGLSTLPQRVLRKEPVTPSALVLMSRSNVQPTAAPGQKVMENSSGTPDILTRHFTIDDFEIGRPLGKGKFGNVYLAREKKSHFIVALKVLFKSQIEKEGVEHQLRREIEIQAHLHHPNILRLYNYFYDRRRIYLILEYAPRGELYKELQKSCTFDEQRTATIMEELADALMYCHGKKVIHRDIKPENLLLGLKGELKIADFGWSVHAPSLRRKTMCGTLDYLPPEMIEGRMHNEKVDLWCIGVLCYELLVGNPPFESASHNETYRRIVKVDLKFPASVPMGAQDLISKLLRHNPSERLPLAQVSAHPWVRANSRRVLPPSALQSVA
T4 sequence (Q02763 whole entry): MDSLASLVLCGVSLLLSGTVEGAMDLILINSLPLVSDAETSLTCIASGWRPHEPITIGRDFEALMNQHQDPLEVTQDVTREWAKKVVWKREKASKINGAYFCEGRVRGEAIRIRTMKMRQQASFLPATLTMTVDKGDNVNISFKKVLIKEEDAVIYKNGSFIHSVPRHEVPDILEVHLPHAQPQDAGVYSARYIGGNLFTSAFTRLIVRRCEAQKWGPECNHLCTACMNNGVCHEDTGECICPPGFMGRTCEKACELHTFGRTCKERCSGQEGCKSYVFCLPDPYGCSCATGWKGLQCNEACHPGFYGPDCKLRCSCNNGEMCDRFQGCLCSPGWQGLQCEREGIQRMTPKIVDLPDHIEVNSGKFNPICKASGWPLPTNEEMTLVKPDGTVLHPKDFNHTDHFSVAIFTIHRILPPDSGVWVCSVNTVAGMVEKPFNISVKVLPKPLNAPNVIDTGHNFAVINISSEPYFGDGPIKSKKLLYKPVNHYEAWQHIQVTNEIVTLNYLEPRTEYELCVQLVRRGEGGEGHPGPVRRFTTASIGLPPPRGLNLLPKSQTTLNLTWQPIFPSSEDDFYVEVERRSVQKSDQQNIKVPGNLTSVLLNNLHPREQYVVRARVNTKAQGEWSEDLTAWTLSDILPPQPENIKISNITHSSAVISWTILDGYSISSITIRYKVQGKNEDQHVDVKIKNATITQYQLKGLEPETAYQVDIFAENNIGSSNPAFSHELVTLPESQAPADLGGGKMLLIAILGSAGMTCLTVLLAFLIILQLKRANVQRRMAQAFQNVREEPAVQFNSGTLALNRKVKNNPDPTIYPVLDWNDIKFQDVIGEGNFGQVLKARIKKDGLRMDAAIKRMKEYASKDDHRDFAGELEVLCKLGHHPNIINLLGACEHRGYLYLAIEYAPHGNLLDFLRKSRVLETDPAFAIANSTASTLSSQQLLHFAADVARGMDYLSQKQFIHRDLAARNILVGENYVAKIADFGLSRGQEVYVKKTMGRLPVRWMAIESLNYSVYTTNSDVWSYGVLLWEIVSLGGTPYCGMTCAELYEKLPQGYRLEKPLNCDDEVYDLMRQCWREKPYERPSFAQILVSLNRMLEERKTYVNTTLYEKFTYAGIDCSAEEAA
T2 sequence (Q13882 whole entry): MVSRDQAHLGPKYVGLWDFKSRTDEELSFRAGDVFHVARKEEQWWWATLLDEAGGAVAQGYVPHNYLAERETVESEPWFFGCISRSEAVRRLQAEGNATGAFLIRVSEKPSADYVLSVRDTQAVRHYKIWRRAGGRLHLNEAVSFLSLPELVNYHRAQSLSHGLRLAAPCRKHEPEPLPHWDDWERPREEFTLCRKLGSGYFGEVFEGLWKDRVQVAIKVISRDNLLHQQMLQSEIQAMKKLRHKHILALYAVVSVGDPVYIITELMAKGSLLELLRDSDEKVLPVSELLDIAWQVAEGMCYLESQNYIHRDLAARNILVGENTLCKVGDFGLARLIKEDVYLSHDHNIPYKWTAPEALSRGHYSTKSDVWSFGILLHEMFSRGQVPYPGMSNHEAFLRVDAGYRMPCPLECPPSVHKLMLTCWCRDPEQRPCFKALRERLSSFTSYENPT
Sequence of CDK1/cyclinB (P06493 whole entry): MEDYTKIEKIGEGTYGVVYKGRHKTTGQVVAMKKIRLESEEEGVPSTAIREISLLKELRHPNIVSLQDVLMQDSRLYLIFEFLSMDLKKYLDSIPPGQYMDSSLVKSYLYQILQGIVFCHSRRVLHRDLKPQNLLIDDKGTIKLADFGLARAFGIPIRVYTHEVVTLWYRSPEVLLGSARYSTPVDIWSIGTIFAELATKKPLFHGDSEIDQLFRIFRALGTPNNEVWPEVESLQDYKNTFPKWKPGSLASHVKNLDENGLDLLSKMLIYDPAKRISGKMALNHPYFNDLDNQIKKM
Sequence of CDK1/cyclinB (P14635 whole entry partner): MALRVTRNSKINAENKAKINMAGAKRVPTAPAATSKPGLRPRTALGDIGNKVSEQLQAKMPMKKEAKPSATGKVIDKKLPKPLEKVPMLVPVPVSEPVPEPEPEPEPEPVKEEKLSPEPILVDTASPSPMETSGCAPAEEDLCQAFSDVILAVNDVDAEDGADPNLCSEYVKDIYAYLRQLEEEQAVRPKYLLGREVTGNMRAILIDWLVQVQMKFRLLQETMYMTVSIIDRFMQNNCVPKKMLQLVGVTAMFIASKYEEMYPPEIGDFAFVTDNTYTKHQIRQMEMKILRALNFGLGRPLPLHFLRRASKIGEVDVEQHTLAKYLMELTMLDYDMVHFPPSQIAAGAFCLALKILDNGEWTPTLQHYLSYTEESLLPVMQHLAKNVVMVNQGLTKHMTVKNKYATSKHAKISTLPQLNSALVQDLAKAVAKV
T7 sequence (P04629 whole entry): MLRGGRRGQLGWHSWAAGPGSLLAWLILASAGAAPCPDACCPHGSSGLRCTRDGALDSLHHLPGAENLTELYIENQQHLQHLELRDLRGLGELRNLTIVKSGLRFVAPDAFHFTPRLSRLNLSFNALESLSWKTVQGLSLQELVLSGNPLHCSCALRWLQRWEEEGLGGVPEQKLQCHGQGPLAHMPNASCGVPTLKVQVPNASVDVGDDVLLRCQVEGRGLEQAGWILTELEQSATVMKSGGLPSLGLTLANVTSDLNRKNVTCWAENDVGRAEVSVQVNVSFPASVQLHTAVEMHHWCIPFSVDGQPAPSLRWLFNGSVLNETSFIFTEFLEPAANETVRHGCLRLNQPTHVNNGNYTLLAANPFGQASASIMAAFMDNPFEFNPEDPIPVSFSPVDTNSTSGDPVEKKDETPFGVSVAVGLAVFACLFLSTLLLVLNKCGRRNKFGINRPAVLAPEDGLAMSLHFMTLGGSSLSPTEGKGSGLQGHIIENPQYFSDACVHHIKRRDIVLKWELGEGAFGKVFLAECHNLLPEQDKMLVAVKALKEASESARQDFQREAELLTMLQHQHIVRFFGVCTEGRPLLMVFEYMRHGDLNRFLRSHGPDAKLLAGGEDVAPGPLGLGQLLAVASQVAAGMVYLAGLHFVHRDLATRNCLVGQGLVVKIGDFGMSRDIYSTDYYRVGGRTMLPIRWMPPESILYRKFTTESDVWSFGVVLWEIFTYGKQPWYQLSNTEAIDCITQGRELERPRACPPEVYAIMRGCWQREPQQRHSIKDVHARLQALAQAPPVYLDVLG

The inhibition is the change of the read-out against control, counted positive when it falls. `O=c1cc(-c2n[nH]c3ncc(-c4c(F)cccc4F)cc23)nc(N2CCC(O)CC2)[nH]1` [G-9807]: the inhibition at 1 µM was 100% in assay [1]; 96.5% in [2]; 26.8% in [3]; 80.4% in [4]; 95.9% in assay [5]; 82.2% in assay [6]. Moreover, the figures for the inhibition at 1 µM in assay [7], in assay [8] and in assay [9] were 96.3%, 91.2% and 97.5%, respectively.
Turning to `CC#CC(=O)Nc1cccc2c(Oc3ncccc3-c3ccnc(N[C@H]4CCCNC4)n3)c(C)ccc12` [G-7658], the inhibition at 1 µM in assay [1] was 4%; in [2] it was 7.5%; in assay [3] it was -9%; in assay [4] it was 0%; in [5], 12.5%; in assay [6], 2%. Moreover, the inhibition at 1 µM in [7] is -1%; in [8], 10.5%; in assay [9], 31%.
In the case of `CCOC(=O)Nc1cccc2c(Oc3ncccc3-c3ccnc(N[C@H]4CCCNC4)n3)c(C)ccc12` [G-1749], the inhibition at 1 µM was 3.5% in assay [1]; 6.5% in assay [2]; 1.8% in [3]; -2% in assay [4]; 26% in [5]; 2.5% in [6]. The results for the inhibition at 1 µM in assay [7], in assay [8] and in assay [9] were 8%, -4% and 33.5%, respectively.
